≈ marks a conversion by molar mass, not a printed value. Where two headings read alike, the source gives them in different places.
What was measured:
P388 leukemia = assay: Antitumour activity, P388 leukemia in mice; type: in vivo, mouse; conditions: 0.00625 mg/kg/day, intraperitoneally for 9 consecutive days; 1×10^6 cells/animal, intraperitoneally transplanted
Klebsiella pneumoniae = assay: Antimicrobial activity, paper disc method; type: cell-based; conditions: 0.02 ml of 300 μg/ml solution, trypticase-soy agar
Protocol: (§1) With trypticase-soy agar (BBL) as an assay medium, the inhibitory concentrations against the microorganisms named below were investigated by the paper disc method. Thus, filter-paper discs (Toyo Seisakusho, thin-type, 8 mm dia.) each impregnated with 0.02 ml of a 300 μg/ml solution of C-15003 P-3, P-3' or P-4 were placed on plates respectively inoculated with the microorganisms named below to investigate the minimal inhibitory concentrations.

Pseudomonas aeruginosa = assay: Antimicrobial activity, paper disc method; type: cell-based; conditions: 0.02 ml of 300 μg/ml solution, trypticase-soy agar
Protocol: as §1

Proteus vulgaris = assay: Antimicrobial activity, paper disc method; type: cell-based; conditions: 0.02 ml of 300 μg/ml solution, trypticase-soy agar
Protocol: as §1

Serratia marcescens = assay: Antimicrobial activity, paper disc method; type: cell-based; conditions: 0.02 ml of 300 μg/ml solution, trypticase-soy agar
Protocol: as §1

Staphylococcus aureus = assay: Antimicrobial activity, paper disc method; type: cell-based; conditions: 0.02 ml of 300 μg/ml solution, trypticase-soy agar
Protocol: as §1

Bacillus cereus = assay: Antimicrobial activity, paper disc method; type: cell-based; conditions: 0.02 ml of 300 μg/ml solution, trypticase-soy agar
Protocol: as §1

Bacillus subtilis = assay: Antimicrobial activity, paper disc method; type: cell-based; conditions: 0.02 ml of 300 μg/ml solution, trypticase-soy agar
Protocol: as §1

Escherichia coli = assay: Antimicrobial activity, paper disc method; type: cell-based; conditions: 0.02 ml of 300 μg/ml solution, trypticase-soy agar
Protocol: as §1

Proteus mirabilis = assay: Antimicrobial activity, paper disc method; type: cell-based; conditions: 0.02 ml of 300 μg/ml solution, trypticase-soy agar
Protocol: as §1

Mycobacterium avium = assay: Antimicrobial activity, paper disc method; type: cell-based; conditions: 0.02 ml of 300 μg/ml solution, trypticase-soy agar
Protocol: as §1

Talaromyces avellaneus = assay: Growth inhibition on agar plates; type: cell-based; conditions: Hamigera avellanea, pH 7.0, read-out: minimal inhibitory concentration
Protocol: (§2) On the other hand, with agar plates containing the assay medium [3.5 g disodium hydrogen phosphate, 0.5 g monopotassium dihydrogen phosphate, 5 g yeast extract (Difco), 10 g glucose, 15 g agar, 1000 ml distilled water, pH 7.0], the growth inhibition against Talaromyces avellaneus was assayed. In this assay, the minimal inhibitory concentrations were 3 μg/ml for C-15003 P-3 and P-3', and 1.5 μg/ml for C-15003 P-4. Furthermore, the wild strain of Tetrahymena pyriformis W as an assay organism was cultivated on an assay medium [composed of 20 g Proteose-peptone (Difco), 1 g yeast extract, 2 g glucose, 1000 ml distilled water and 10 ml 1 M-phosphate buffer pH 7.0] at 28° C. for 44 to 48 hours and the growth inhibitory activity of the antibiotic compounds against this particular microorganism was determined by the serial dilution method. Growth inhibition occurred at 1 μg/ml for C-15003 P-3 and P-3', and at 0.5 μg/ml for C-15003 P-4.

[1] = Acute toxicity test in mice; conditions: mouse, in vivo, ip, intraperitoneal injection
Tetrahymena pyriformis W = assay: Growth inhibitory activity, serial dilution method; type: cell-based; conditions: 28° C., 44 to 48 hours, pH 7.0, read-out: growth inhibition concentration
Protocol: The potency of the antibiotic was assayed with Tetrahymena pyriformis W as an assay organism.
as §2

[2] = in chloroform, ethyl acetate, acetone, ethanol, methanol, pyridine, tetrahydrofuran & dimethylsulfoxide

SMILES	life span-extending ratio (P388 leukemia) [%]	antimicrobial activity (minimal inhibitory concentration) (Klebsiella pneumoniae)	antimicrobial activity (minimal inhibitory concentration) (Pseudomonas aeruginosa)	antimicrobial activity (minimal inhibitory concentration) (Proteus vulgaris)	antimicrobial activity (minimal inhibitory concentration) (Serratia marcescens)	antimicrobial activity (minimal inhibitory concentration) (Staphylococcus aureus)	antimicrobial activity (minimal inhibitory concentration) (Bacillus cereus)	antimicrobial activity (minimal inhibitory concentration) (Bacillus subtilis)	antimicrobial activity (minimal inhibitory concentration) (Escherichia coli)	antimicrobial activity (minimal inhibitory concentration) (Proteus mirabilis)	antimicrobial activity (minimal inhibitory concentration) (Mycobacterium avium)	Solubility (in benzene & ether)	Solubility [2]	Solubility (in petr. ether, hexane & water)	MIC (Talaromyces avellaneus) [µg/mL]	LD50 [1] [mg/kg]	MIC (Tetrahymena pyriformis W) [µg/mL]
COc1cc2cc(c1Cl)N(C)C(=O)CC(OC(=O)C(C)C)C1(C)OC1C(C)C1CC(O)(NC(=O)O1)C(OC)C=CC=C(C)C2 (stereo not shown) [C-15003 P-3]	200	no activity	no activity	no activity	no activity	no activity	no activity	no activity	no activity	no activity	no activity	Sparingly soluble	Soluble	Insoluble	3 (≈ 4.72 µM)	> 0.313	1 (≈ 1.57 µM)
COc1cc2cc(c1Cl)N(C)C(=O)CC(OC(=O)CC(C)C)C1(C)OC1C(C)C1CC(O)(NC(=O)O1)C(OC)C=CC=C(C)C2 (stereo not shown) [C-15003 P-4]	200	no activity	no activity	no activity	no activity	no activity	no activity	no activity	no activity	no activity	no activity	Sparingly soluble	Soluble	Insoluble	1.5 (≈ 2.31 µM)	> 0.313	0.5 (≈ 0.77 µM)

— patent publication US4360462A (priority 1977, dated 1982)
